System: Lenzites trabea (Madison strain 617)
Test: NWMA Soil-Block Test (fungicide effectiveness, wood decay)
Conditions: 5.4 times the threshold concentration (NWMA)
Method: The product of Table 2, diluted with four parts water, was tested as a fungicide using a standard National Woodwork Manufacturers Association (NWMA) Soil-Block Test to determine and compare effectiveness with a Standard Solvent Based 5% Penta treating solution. This test method is used to determine the minimum amount of preservative that is effective in preventing decay of selected species of wood by selected fungi under optimum laboratory conditions.
The test method may be briefly summarized as follows: Conditioned blocks of wood are impregnated with solutions of a preservative in water or organic solvent to form one or more series of gradient retentions of the preservative in the blocks. After periods of weathering, the impregnated blocks are exposed to the wood-destroying fungus, Lenzites trabea (Madison strain 617). The minimum amount of preservative which protects the impregnated blocks against decay by the fungus is defined as the threshold retention for that organism. Failure to protect is evidenced by loss of wood from the treated wood blocks, as indicated by a loss in weight.
The threshold retention expressed in pounds of treating solution per cubic foot of wood represents the minimum amount of preservative necessary to protect wood from decay. […]

CCCCNC(=O)OCC#CI [Example 3-Iodo, 3-iodo-2-propynyl butyl carbamate]
Use Concentration: 0.27%

Source: patent publication US4323602A, “Water repellent and preservative for wood products” (priority 1980, dated 1982)
